Laboratory results published in paper PMC5021059 (Clinical, Cosmetic and Investigational Dermatology, 2016).

Biological target: T1, 5-α-reductase type I (Homo sapiens, UniProt P18405)
T1 sequence (P18405 1-259): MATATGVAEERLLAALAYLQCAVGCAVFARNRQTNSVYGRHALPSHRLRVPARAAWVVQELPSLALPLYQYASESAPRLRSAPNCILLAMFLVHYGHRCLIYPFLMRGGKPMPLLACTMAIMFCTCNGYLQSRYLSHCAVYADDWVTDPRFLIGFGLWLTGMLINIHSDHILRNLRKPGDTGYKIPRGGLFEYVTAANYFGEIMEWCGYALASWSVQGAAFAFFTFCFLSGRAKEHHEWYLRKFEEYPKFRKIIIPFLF
Assay type: biochemical

| IC50 | Compound |
| --- | --- |
| 6.5±0.33 and 6.8±0.1 μM | CCCCCCCCCCCCCCC[C@@H](O)[C@@H](N)CO (racemic) [sphinganine] |
| 420 ± 20 nM | CC(C)(C)NC(=O)[C@H]1CC[C@H]2[C@@H]3CC[C@H]4NC(=O)C=C[C@]4(C)[C@H]3CC[C@]12C [finasteride] |
